According to patent US7250269B2, “Composition for assaying glycoprotein” (Asahi Kasei Pharma Corporation, priority 2001, dated 2007):
Values belong to the compound of their own block, whether it stands above or below them.

Columns and labels:
Type in all cases: biochemical
[1] = biological target: Fusarium oxysporum IFO-9972 fructosyl amino acid oxidase (FOD), mutant FOD-M, 372nd lysine of SEQ ID NO: 1 replaced with methionine, SEQ ID NO: 3 (Fusarium oxysporum, UniProt X0D315, K373M); test: Substrate specificity of mutant FOD-M, Table 6 (372nd lysine replaced with methionine); conditions: for Kcat: substrate glycated amino acid
Experimental: (§1) <<Method for Measuring Activity of Enzyme Reacting with Glycated Amino Acid>>
(§2) <Composition of Reaction Solution>
(§3) The glycated amino acid substrate specificity of FOD-mutated recombinant contained in the cell extract prepared in Example 16 was measured using the above-mentioned FOD enzyme activity measuring method. As a result, two mutants of which the reactivity with glycated valine is less than 1/1,000 the reactivity with glycated lysine were identified among candidate strains. These were regarded as the target mutants.
(§4) To observe the effect of replacement with other amino acids at the mutated amino acid site identified in Example 19, the site-directed mutagenesis according to the method of Kunkel et al. was carried out. Synthesis of an oligonucleotide having the base sequence of 1-27 in the sequence table Sequence ID No. 7 was consigned to an outside source (BEX Co., Ltd.). The oligonucleotide was subjected to the site-directed mutagenesis using the Mutan-K kit (manufactured by Takara Shuzo Co., Ltd.) according to the manual attached to the kit. The mutant gene obtained was incorporated again into the expression plasmid pTV119N, introduced into Escherichia coli host, and cultured at 30° C. for 16 hours in a 3.7% BHI liquid medium containing 50 μg/ml of ampicillin and 1 mM of IPTG to produce mutant FOD protein.
(§5) The mutant obtained by replacing the lysine with tryptophan was named FOD-W, the expression plasmid producing the FOD-W was named pcmFOD3, the mutant obtained by replacing the lysine with methionine was named FOD-M, the expression plasmid producing the FOD-M was named pcmFOD4, the mutant obtained by replacing the lysine with valine was named FOD-V, and the expression plasmid producing the FOD-V was named pcmFOD5.

[2] = biological target: Fusarium oxysporum IFO-9972 fructosyl amino acid oxidase (FOD), mutant with 372nd lysine of SEQ ID NO: 1 replaced with arginine (Fusarium oxysporum, UniProt X0D315, K373R); test: Substrate specificity of mutant FOD, Table 6 (372nd lysine replaced with arginine); conditions: for Kcat: substrate glycated amino acid
Experimental: as §1, §2, §3
The base sequences of the mutant FOD genes obtained in Example 18 were determined according to the dideoxy method.
as §4

[3] = biological target: Fusarium oxysporum IFO-9972 fructosyl amino acid oxidase (FOD), wild type (372nd lysine), SEQ ID NO: 1 (Fusarium oxysporum, UniProt X0D315); test: Substrate specificity of FOD, Table 6 (372nd amino acid Lysine, wild type); conditions: for Kcat: substrate glycated amino acid
Experimental: as §1, §2, §3, §4

[4] = biological target: Fusarium oxysporum IFO-9972 fructosyl amino acid oxidase (FOD), mutant FOD-V, 372nd lysine of SEQ ID NO: 1 replaced with valine, SEQ ID NO: 4 (Fusarium oxysporum, UniProt X0D315, K373V); test: Substrate specificity of mutant FOD-V, Table 6 (372nd lysine replaced with valine); conditions: for Kcat: substrate glycated amino acid
Experimental: as §1, §2, §3, §4, §5

[5] = biological target: Fusarium oxysporum IFO-9972 fructosyl amino acid oxidase (FOD), mutant with 372nd lysine of SEQ ID NO: 1 replaced with cysteine (Fusarium oxysporum, UniProt X0D315, K373C); test: Substrate specificity of mutant FOD, Table 6 (372nd lysine replaced with cysteine); conditions: for Kcat: substrate glycated amino acid
Experimental: as §1, §2, §3, §4

[6] = biological target: Fusarium oxysporum IFO-9972 fructosyl amino acid oxidase (FOD), mutant FOD-W, 372nd lysine of SEQ ID NO: 1 replaced with tryptophan, SEQ ID NO: 2 (Fusarium oxysporum, UniProt X0D315, K373W); test: Substrate specificity and Km of mutant FOD-W (372nd lysine replaced with tryptophan); conditions: substrate glycated amino acid, "below limit" = below the detection limit
Experimental: as §1, §2, §3
as §4, with “protein. […]” for “protein.”

[7] = biological target: Fusarium oxysporum IFO-9972 fructosyl amino acid oxidase (FOD), mutant with 372nd lysine of SEQ ID NO: 1 replaced with serine (Fusarium oxysporum, UniProt X0D315, K373S); test: Substrate specificity of mutant FOD, Table 6 (372nd lysine replaced with serine); conditions: for Kcat: substrate glycated amino acid
Experimental: as §1, §2, §3, §4

[8] = biological target: Fusarium oxysporum IFO-9972 fructosyl amino acid oxidase (FOD), mutant with 372nd lysine of SEQ ID NO: 1 replaced with alanine (Fusarium oxysporum, UniProt X0D315, K373A); test: Substrate specificity of mutant FOD, Table 6 (372nd lysine replaced with alanine); conditions: for Kcat: substrate glycated amino acid
Experimental: as §1, §2, §3, §4

[9] = biological target: Fusarium oxysporum IFO-9972 fructosyl amino acid oxidase (FOD), mutant with 372nd lysine of SEQ ID NO: 1 replaced with threonine (Fusarium oxysporum, UniProt X0D315, K373T); test: Substrate specificity of mutant FOD, Table 6 (372nd lysine replaced with threonine); conditions: for Kcat: substrate glycated amino acid
Experimental: as §1, §2, §3, §4

[10] = biological target: T1, HSA substrate solution; Albumin Human (Homo sapiens, UniProt P02768); test: Activity of various proteases on HSA substrate solution (released glycated amino acids/peptides assayed with R-FOD); conditions: pH 8.0; 37° C. for 30 minutes
T1 construct: purchased Sigma-Aldrich Co
T1 sequence (P02768 25-609): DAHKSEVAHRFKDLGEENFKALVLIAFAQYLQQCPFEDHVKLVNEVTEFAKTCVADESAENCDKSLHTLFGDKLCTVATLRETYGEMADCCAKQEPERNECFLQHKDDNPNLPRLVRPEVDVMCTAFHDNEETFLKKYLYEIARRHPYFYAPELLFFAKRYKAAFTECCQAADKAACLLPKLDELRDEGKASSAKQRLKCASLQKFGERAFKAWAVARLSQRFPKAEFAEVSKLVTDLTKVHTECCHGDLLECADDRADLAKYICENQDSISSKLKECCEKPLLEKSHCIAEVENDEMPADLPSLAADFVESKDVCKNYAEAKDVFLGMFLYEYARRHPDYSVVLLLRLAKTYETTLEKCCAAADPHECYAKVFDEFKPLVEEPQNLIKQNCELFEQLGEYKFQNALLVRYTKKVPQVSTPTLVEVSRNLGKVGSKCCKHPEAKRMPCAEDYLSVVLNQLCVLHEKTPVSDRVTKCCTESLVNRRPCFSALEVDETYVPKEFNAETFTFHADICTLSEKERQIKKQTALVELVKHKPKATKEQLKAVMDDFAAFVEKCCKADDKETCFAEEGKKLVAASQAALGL
Experimental: (§6) • 1. […] GA % was assayed using a glycated albumin analyzer (GAA-2000, manufactured by ARKRAY, Inc.). • 2. G-II and III substrate solutions, FRA value=48 μmol/L [Globulins Human Cohn Fraction II and III; 16.9 mg/ml (manufactured by Sigma-Aldrich Co.)] • 3. G-IV substrate solution, FRA value=26 μmol/L [Globulins Human Cohn Fraction IV; 6 mg/ml (manufactured by Sigma-Aldrich Co.)] • 4. G-I substrate solution, FRA value=77 μmol/L [Glovenin I: immunoglobulin preparation (manufactured by Takeda Chemical Industries, Ltd.)] • 5. Hb substrate solution: Hemoglobin Human; 55 mg/ml, glycated hemoglobin rate: HbA1c=4.5% [manufactured by Sigma-Aldrich Co., the HbA1c value was determined using a glycated hemoglobin analyzer (Hi-Auto A1C HA-8150, manufactured by ARKRAY, Inc.)]. […]
(§7) 300 μl of the above reaction solution for assaying glycated amino acids was added to a cell and incubated for three minutes at 37° C. […] Absorbances (A0 blank and A1 blank) were measured. The reaction of protease with glycated proteins is indicated by the following absorbance change. ΔA=(A1−A0)−(A1 blank−A0 blank)

[11] = tested on: G-I substrate solution (Glovenin I: immunoglobulin preparation); test: Activity of various proteases on G-I substrate solution (R-FOD assay); conditions: pH 8.0, 37° C. for 30 minutes
Experimental: as §6, §7

[12] = biological target: T2, Hb substrate solution: Hemoglobin Human (Homo sapiens, UniProt P68871+P69905); test: Activity of various proteases on Hb substrate solution (R-FOD assay); conditions: pH 8.0; 37° C. for 60 minutes
T2 construct: purchased Sigma-Aldrich Co
T2 sequence (P69905 2-142 limits assumed): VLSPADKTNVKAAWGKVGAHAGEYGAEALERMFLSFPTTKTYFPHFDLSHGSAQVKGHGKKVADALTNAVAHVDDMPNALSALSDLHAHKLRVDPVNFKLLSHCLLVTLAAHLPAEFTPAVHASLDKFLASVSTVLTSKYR
T2 sequence (P68871 2-147 limits assumed): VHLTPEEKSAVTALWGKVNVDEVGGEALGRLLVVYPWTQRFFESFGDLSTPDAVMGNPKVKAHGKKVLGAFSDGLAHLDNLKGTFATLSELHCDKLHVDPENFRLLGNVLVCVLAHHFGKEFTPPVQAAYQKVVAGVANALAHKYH
Experimental: as §6, §7

Compound: O=C(N[C@@H](CCCCNCC1(O)OC[C@@H](O)[C@@H](O)[C@@H]1O)C(=O)O)OCc1ccccc1 (stereo partly drawn) [glycated lysine, α-carbobenzoxy-ε-D-1-deoxy-fructosyl lysine]
- Kcat reactivity ratio (a)/(b), glycated lysine/glycated valine [1]: 745
- Kcat [1]: 853
- Kcat reactivity ratio (a)/(b), glycated lysine/glycated valine [2]: 788
- Kcat [2]: 351
- Kcat reactivity ratio (a)/(b), glycated lysine/glycated valine [3]: 27.1
- Kcat [3]: 14900
- Kcat reactivity ratio (a)/(b), glycated lysine/glycated valine [4]: 1420
- Kcat [4]: 1470
- Kcat reactivity ratio (a)/(b), glycated lysine/glycated valine [5]: 1560
- Kcat [5]: 569
- Kcat [6]: 248
- Kcat reactivity ratio (a)/(b), glycated lysine/glycated valine [7]: 747
- Kcat [7]: 1250
- Kcat reactivity ratio (a)/(b), glycated lysine/glycated valine [8]: 1480
- Kcat [8]: 1790
- Kcat reactivity ratio (a)/(b), glycated lysine/glycated valine [9]: 2010
- Kcat [9]: 952

Compound: CC(C)[C@H](NCC1(O)OC[C@@H](O)[C@@H](O)[C@@H]1O)C(=O)O (some centres unmarked) [glycated valine, 1-deoxy-fructosyl valine]
- Kcat [1]: 1.14
- Kcat [2]: 0.45
- Kcat [3]: 549
- Kcat [4]: 1.04
- Kcat [5]: 0.37
- Kcat [6]: below limit
- Kcat [7]: 1.68
- Kcat [8]: 1.21
- Kcat [9]: 0.47

- ΔA HSA [10]: 25 mAbs
- ΔA Hb [12]: 7 mAbs
Compound: Chymotrypsin
- ΔA Gl [11]: 103 mAbs

- ΔA HSA [10]: 52 mAbs
- ΔA Hb [12]: 17 mAbs
Compound: Pancreatin
- ΔA Gl [11]: 100 mAbs
